From patent US11573233B2, “Systems and methods for label-free detection of analytes” (UNIVERSITY OF UTAH RESEARCH FOUNDATION, priority 2015, dated 2023)

Experiment: second harmonic imaging (SHI) of tetracaine binding to lipid bilayer array
From the text: SH is a powerful tool for investigating small-molecule and protein interactions with membranes in a label-free manner. However, a high-throughput analog would be even more advantageous, akin to fluorescence imaging. Towards that end, SHI was implemented to measure the interactions between the local anesthetic tetracaine and a […] lipid bilayer array (MLBA) in a label-free manner allowing the effects of lipid phase and CHO content on tetracaine binding to be examined simultaneously.

CCCCNc1ccc(C(=O)OCCN(C)C)cc1 [tetracaine]
maximum surface excess (effect of phospholipid unsaturation and cholesterol content): increases with the degree of unsaturation of the phospholipids and decreases with cholesterol in the lipid bilayers
binding affinity to lipid phases (l.c. phase vs solid-gel phase lipids, label-free SHI): higher binding affinity to l.c. phase lipids than to solid-gel phase lipids
